Measured values: patent publication US10076519B2 (CYTOKINETICS, INC., priority 2010, dated 2018)

These compounds were tested on rabbit skeletal myofibrils (fast skeletal myofibrils) (assay: Activation of fast skeletal myofibrils (PUMA assay, PK/LDH-coupled ATPase at pCa25)). Details: AC1.4 determined according to the procedure of Example 39; reported as class symbols.
Assay type: biochemical
Method: Preparation of Fast Skeletal Myofibrils.
Rabbit skeletal myofibrils were prepared based upon the method of Herrmann et al. (Biochem. 32(28):7255-7263(1993). Myofibrils were prepared from rabbit psoas muscle purchased from Pel-Freez Biologicals (Arkansas) within 2 days of ordering, stored on ice. Minced muscle was homogenized in 10 volumes of ice-cold “standard” buffer (50 mM Tris, pH 7.4, 0.1M potassium acetate, 5 mM KCl, 2 mM DTT, 0.2 mM PMSF, 10 μM leupeptin, 5 μM pepstatin, and 0.5 mM sodium azide) containing 5 mM EDTA and 0.5% Triton X-100 using an Omni-Macro homogenizer. Myofibrils were recovered by low speed centrifugation (3000 rpm for 10 minutes) and washed 2 times in the Triton X-100 containing buffer to ensure removal of cellular membrane. Following the Triton washes, myofibrils were washed 3 times in “standard” buffer containing 2 mM magnesium acetate. A final wash in assay buffer (12 mM PIPES, pH 6.8, 60 mM KCl, 1 mM DTT) was performed and brought to 10% sucrose for flash freezing in liquid nitrogen and storage at −80° C.
Activation of Fast Skeletal Myofibrils.
Fast fiber activators were identified by measuring the enzymatic activity of muscle myofibril preparations using the proprietary PUMA™ (see, e.g., U.S. Pat. Nos. 6,410,254, 6,743,599, 7,202,051, and 7,378,254) assay system. Myofibril preparations consisted of rabbit skeletal muscle (approximately 90% fast fibers) that had been mechanically homogenized and washed with a detergent (triton X-100) to remove cellular membranes. This preparation retained all of the sarcomeric components in a native conformation and the enzymatic activity was still regulated by calcium. Compounds were tested using a myofibril suspension and a level of calcium sufficient to increase enzymatic activity of the myofibrils to 25% of their maximal rate (termed pCa25). Enzymatic activity was tracked via a pyruvate kinase and lactate dehydrogenase-coupled enzyme system. This assay regenerates myosin-produced ADP into ATP by oxidizing NADH, producing an absorbance change at 340 nm. The buffering system was 12 mM Pipes, 2 mM MgCl2, 1 mM DTT at pH 6.8 (PM12 buffer).
Using procedures similar to those described herein, utilizing reagents and intermediates commercially available (e.g., Sigma-Aldrich, St. Louis, Mo.) or readily synthesized by one of skill in the art, the compounds in Table 2 were synthesized, characterized and tested. AC1.4 values were determined according to the procedure described in Example 39, and the reported median AC1.4 values are as follows: A=<1 uM; B=1-10 uM; C=10-20 uM; D=>20 uM.
In the case of `CC(C)(CNc1ccc(-c2ccc3[nH]c(=O)[nH]c3c2)nn1)c1ccc(F)cc1`, the “Mean AC1.4” value is reported as “A (A=<1 uM)”.
`CC(C)(CNc1ccc(C(=O)N[C@H]2CCC[C@H]2C(N)=O)nn1)c1ccc(F)cc1` (stereo in doubt) [(2S,1R)-2-[(6-{[2-(4-fluorophenyl)-2-methylpropyl]amino}pyridazin-3-yl)carbonylamino]cyclopentane-carboxamide] was tested, and the “Mean AC1.4” value was “D (D=>20 uM)”.
With `CC(C)(CNc1ccc(-c2cccc(Cl)c2)nn1)c1ccc(F)cc1` [[6-(3-chlorophenyl)pyridazin-3-yl][2-(4-fluorophenyl)-2-methylpropyl]amine] the “Mean AC1.4” value was “A (A=<1 uM)”.
For `NC(=O)c1ccc(F)c(-c2ccc(NCC3(c4cccc(O)n4)CCC3)nn2)c1`, the “Mean AC1.4” value was “D (D=>20 uM)”.
For `CC(C)(C)OC(=O)N(CC(C)(C)c1ccc(F)cc1)c1ccc(-c2ccc3[nH]c(=O)c(=O)[nH]c3c2)nn1` [(tert-butoxy)-N-[6-(2,3-dioxo(1,4-dihydroquinoxalin-6-yl))pyridazin-3-yl]-N-[2-(4-fluorophenyl)-2-methylpropyl]carboxamide], the “Mean AC1.4” value was “D (D=>20 uM)”.
`NC(=O)c1cccc(C2(CNc3ccc(-c4ccc5[nH]ncc5c4)nn3)CCC2)n1` was tested, and the “Mean AC1.4” value was “B (B=1-10 uM)”.
In the case of `CC(C)(C)OC(=O)N1CCN(C(=O)c2ccc(NCC(C)(C)c3ccc(F)cc3)nn2)C(CO)C1` (stereo not drawn), the “Mean AC1.4” value is reported as “D (D=>20 uM)”.
In the case of `CS(=O)(=O)Nc1cccc(-c2ccc(NCC3(c4ncccc4F)CCC3)nn2)c1`, the “Mean AC1.4” value is reported as “B (B=1-10 uM)”.
In the case of `COc1cccc(C2(CNc3ccc(-c4ccc5[nH]ncc5c4)nn3)CCC2)n1` [(6-(1H-indazol-5-yl)pyridazin-3-yl){[(6-methoxy(2-pyridyl))cyclobutyl]methyl}amine], the “Mean AC1.4” value is reported as “A (A=<1 uM)”.
For `CC1(C)CN(c2ccc(-c3cccc(C(N)=O)c3)nn2)c2ccccc21` [3-[6-(3,3-dimethylindolinyl)pyridazin-3-yl]benzamide], the “Mean AC1.4” value was “D (D=>20 uM)”.
In the case of `N#Cc1cccc(-c2ccc(NCC3(C(=O)O)CCC3)nn2)c1` [1-({[6-(3-cyanophenyl)pyridazin-3-yl]amino}methyl)cyclobutane-carboxylic acid], the “Mean AC1.4” value is reported as “D (D=>20 uM)”.
`N#Cc1cccc(C2(CNc3ccc(-c4ccc5[nH]ncc5c4)nn3)CCC2)n1` was tested, and the “Mean AC1.4” value was “B (B=1-10 uM)”.
For `NC(=O)c1cccc(-c2ccc(NCC3(c4ncccc4F)CCC3)nn2)c1F`, the “Mean AC1.4” value was “B (B=1-10 uM)”.

Same assay, conditions: median AC1.4 class, procedure of Example 39
In the case of `COc1ccc(C2(Nc3ccc(-c4cc(C(N)=O)ccc4F)nn3)CCC2)nc1`, the “Mean AC1.4” value is reported as “D (D=>20 uM)”.
With `NC(=O)c1cccc(-c2ccc(NC3(c4nccs4)CCC3)nn2)c1` [3-{6-[(1,3-thiazol-2-ylcyclobutyl)amino]pyridazin-3-yl}benzamide] the “Mean AC1.4” value was “D (D=>20 uM)”.
With `COc1ccnc(C2(Nc3ccc(-c4cccc(C(N)=O)c4)nn3)CCC2)c1` the “Mean AC1.4” value was “D (D=>20 uM)”.
With `O=C(NC1CCS(=O)(=O)C1)c1cnc(-c2ccc(NCC3(c4ncccc4F)CCC3)nn2)s1` (stereo not drawn) [N-(1,1-dioxothiolan-3-yl){2-[6-({[(3-fluoro(2-pyridyl))cyclobutyl]methyl}ami-no)pyridazin-3-yl](1,3-thiazol-5-yl)}carboxamide] the “Mean AC1.4” value was “A (A=<1 uM)”.
With `CC(C)(Nc1ccc(-c2ccc3[nH]ncc3c2)nn1)c1ccccc1` [(6-(1H-indazol-5-yl)pyridazin-3-yl)(1-methyl-1-phenylethyl)amine] the “Mean AC1.4” value was “B (B=1-10 uM)”.
For `NC(=O)c1ncc(-c2ccc(NCC3(c4ncccc4F)CCC3)nn2)o1`, the “Mean AC1.4” value was “B (B=1-10 uM)”.
`Fc1cccnc1C1(CNc2ccc(-c3ccc4[nH]ncc4c3)nn2)CC(F)(F)C1` [(6-(1H-indazol-5-yl)pyridazin-3-yl){[3,3-difluoro-1-(3-fluoro(2-pyridyl))cyclobutyl]methyl}amine] was tested, and the “Mean AC1.4” value was “B (B=1-10 uM)”.
`NS(=O)(=O)Nc1ccc(F)c(-c2ccc(NCC3(c4ncccc4F)CCC3)nn2)c1` [amino{4-fluoro-3-[6-({[(3-fluoro(2-pyridyl))cyclobutyl]methyl}ami-no)pyridazin-3-yl]phenyl}sulfonamide] was tested, and the “Mean AC1.4” value was “A (A=<1 uM)”.
For `CC(C)(CNc1ccc(-c2cccc(-c3nn[nH]n3)c2)nn1)c1ncccc1F` [[6-(3-(2H-1,2,3,4-tetraazol-5-yl)phenyl)pyridazin-3-yl][2-(3-fluoro(2-pyridyl))-2-methylpropyl]amine], the “Mean AC1.4” value was “B (B=1-10 uM)”.
`NC(=O)Nc1ccc(-c2ccc(NCC3(c4ncccc4F)CCC3)nn2)cn1` was tested, and the “Mean AC1.4” value was “B (B=1-10 uM)”.
For `NC(=S)c1cnc(-c2ccc(NCC3(c4ncccc4F)CCC3)nn2)s1` [amino{2-[6-({[(3-fluoro(2-pyridyl))cyclobutyl]methyl}ami-no)pyridazin-3-yl](1,3-thiazol-5-yl)}methane-1-thione], the “Mean AC1.4” value was “A (A=<1 uM)”.
In the case of `NC(=O)c1nnc(-c2ccc(NCC3(c4ncccc4F)CCC3)nn2)[nH]1` [5-[6-({[(3-fluoro-2-pyridyl)cyclobutyl]methyl}ami-no)pyridazin-3-yl]-4H-1,2,4-triazole-3-carboxamide], the “Mean AC1.4” value is reported as “C (C=10-20 uM)”.
`CC(C)NC(=O)c1ccc(F)c(-c2ccc(NC[C@]3(c4ncccc4F)C[C@H](F)C3)nn2)c1` [{4-fluoro-3-[6-({[3-fluoro-1-(3-fluoro(2-pyridyl))cyclobutyl]methyl}ami-no)pyridazin-3-yl]phenyl}-N-(methylethyl)carboxamide] was tested, and the “Mean AC1.4” value was “A (A=<1 uM)”.
For `N#Cc1cnc(-c2ccc(NCC3(c4ncccc4F)CCC3)nn2)s1` [2-[6-({[(3-fluoro-2-pyridyl)cyclobutyl]methyl}ami-no)pyridazin-3-yl]-1,3-thiazole-5-carbonitrile], the “Mean AC1.4” value was “B (B=1-10 uM)”.
`Fc1ccc(C2(Nc3ccc(-c4ccncc4)nn3)CCC2)cc1` [[(4-fluorophenyl)cyclobutyl](6-(4-pyridyl)pyridazin-3-yl)amine] was tested, and the “Mean AC1.4” value was “B (B=1-10 uM)”.
For `NC(=O)c1ccnc(C2(Nc3ccc(-c4cc(C(N)=O)ccc4F)nn3)CCC2)c1` [2-({[6-(3-carbamoyl-6-fluorophenyl)pyridazin-3-yl]amino}cyclobutyl)pyridine-4-carboxamide], the “Mean AC1.4” value was “D (D=>20 uM)”.

Same assay, conditions: median AC1.4 reported as class; procedure of Example 39
For `C[C@H](O)C(=O)NCc1cnc(-c2ccc(NCC3(c4ncccc4F)CCC3)nn2)s1` [(2S)-N-({2-[6-({[(3-fluoro(2-pyridyl))cyclobutyl]methyl}ami-no)pyridazin-3-yl](1,3-thiazol-5-yl)}methyl)-2-hydroxypropanamide], the “Mean AC1.4” value was “A (A=<1 uM)”.
In the case of `OC[C@@H]1CNCCN1Cc1cnc(-c2ccc(NCC3(c4ncccc4F)CCC3)nn2)s1` [[(2S)-1-({2-[6-({[(3-fluoro(2-pyridyl))cyclobutyl]methyl}ami-no)pyridazin-3-yl](1,3-thiazol-5-yl)}methyl)piperazin-2-yl]methan-1-ol], the “Mean AC1.4” value is reported as “B (B=1-10 uM)”.
For `NC(=O)c1cccc(-c2ccc(NC[C@]3(c4ncccc4F)C[C@H](F)C3)nn2)c1O` [3-[6-({[3-fluoro-1-(3-fluoro(2-pyridyl))cyclobutyl]methyl}ami-no)pyridazin-3-yl]-2-hydroxybenzamide], the “Mean AC1.4” value was “A (A=<1 uM)”.
With `O=C1NCc2cc(-c3ccc(NC[C@]4(c5ncccc5F)C[C@H](F)C4)nn3)ccc21` [5-[6-({[3-fluoro-1-(3-fluoro(2-pyridyl))cyclobutyl]methyl}ami-no)pyridazin-3-yl]isoindolin-1-one] the “Mean AC1.4” value was “C (C=10-20 uM)”.
In the case of `CC(=O)NCc1ccc(F)c(-c2ccc(NC[C@]3(c4ncccc4F)C[C@H](F)C3)nn2)c1` [N-({4-fluoro-3-[6-({[3-fluoro-1-(3-fluoro(2-pyridyl))cyclobutyl]methyl}ami-no)pyridazin-3-yl]phenyl}methyl)acetamide], the “Mean AC1.4” value is reported as “B (B=1-10 uM)”.
In the case of `COc1c(C#N)cccc1-c1ccc(NC[C@]2(c3ncccc3F)C[C@H](F)C2)nn1` [3-[6-({[3-fluoro-1-(3-fluoro(2-pyridyl))cyclobutyl]methyl}ami-no)pyridazin-3-yl]-2-methoxybenzenecarbonitrile], the “Mean AC1.4” value is reported as “C (C=10-20 uM)”.
With `NC(=O)c1cc(Cl)cc(-c2ccc(NC[C@]3(c4ncccc4F)C[C@H](F)C3)nn2)c1` [5-chloro-3-[6-({[3-fluoro-1-(3-fluoro(2-pyridyl))cyclobutyl]methyl}ami-no)pyridazin-3-yl]benzamide] the “Mean AC1.4” value was “B (B=1-10 uM)”.
